From US9920030B2 (priority 2006, dated 2018)
Like-named read-outs stand apart in the source and are kept apart here.

Legend:
Type in all cases: in vivo
[1] = system: Plasmopara vilicola (the causal agent of grape downy mildew); assay: Test A: grape downy mildew, test suspension sprayed on grape seedlings after inoculation, visual disease rating; details: for pest or weed control at 10 µg/mL / pest or weed control at 40 ppm: Plasmopara, 144 h, read-out: Percent Disease Control, Test A; for pest or weed control at 10 µg/mL: ** tested at l0 ppm
In short: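 Compounds dissolved in acetone (3% of final volume), suspended in 50/50 acetone/water with 250 ppm Trem 014; 200 ppm to run-off equals 500 g/ha. Seedlings inoculated, held saturated at 20 °C 24 h, then sprayed; 5 days at 20 °C, 24 h saturated, then visual rating, 0–100% control versus untreated.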

[2] = system: Phytophthora infestans (the causal agent of tomato late blight); assay: whole plant or invertebrate; details: for pest or weed control at 10 µg/mL / pest or weed control at 40 ppm: Phytophthora infestans, 144 h, read-out: Percent Disease Control, Test B
[3] = system: Phytophthora infestans (the causal agent of tomato late blight); assay: whole plant or invertebrate; details: for pest or weed control at 10 µg/mL / pest or weed control at 40 ppm: Phytophthora infestans, 96 h, read-out: Percent Disease Control, Test C
[4] = compounds without asterisk (application rate not given), 100 = 100% disease control, 0 = no control relative to the controls

Compound | Percent Disease Control, Test A [1, 4] [%] | Percent Disease Control, Test B [2, 4] [%] | Percent Disease Control, Test C [3, 4] [%] | Percent Disease Control, Test A ([1]; * tested at 40 ppm) [%] | Percent Disease Control, Test B ([2]; * tested at 40 ppm) [%] | Percent Disease Control, Test C ([3]; * tested at 40 ppm) [%] | further results
Cc1cc(C(F)(F)F)nn1CC(=O)N1CCC(c2nc(-c3nc(-c4ccccc4)no3)cs2)CC1 [Compound 68] | 96 | 95 | 88 | – | – | – | –
Cc1cc(C(F)(F)F)nn1CC(=O)N1CCC(c2nc(C3=NOC4(CCC(C(C)(C)C)CC4)C3)cs2)CC1 (stereo not drawn) [Compound 138] | – | – | – | 93 | 100 | 99 | –
Cc1cc(C(F)(F)F)nn1CC(=S)N1CCC(c2nc(C3=NOC(c4ccccc4)C3)cs2)CC1 (stereo not drawn) [Compound 130, 1-[4-[4-(4,5-dihydro-5-phenyl-3-isoxazolyl)-2-thiazolyl]-1-piperidinyl]-2-[5-methyl-3-(trifluoromethyl)-1H-pyrazol-1-yl]ethanethione] | – | – | – | – | – | – | pest or weed control at 10 µg/mL [1]: 100%; pest or weed control at 10 µg/mL [2]: 100%; pest or weed control at 10 µg/mL [3]: 99%
Cc1cc(C(F)(F)F)nn1CC(=O)N1CCC(c2nc(C3=NOC4(CCSc5ccccc54)C3)cs2)CC1 (stereo not drawn) [Compound 102, 1-[4-[4-(2,3-dihydrospiro[4H-1-benzothiopyran-4,5′(4′H)-isoxazol]-3′-yl)-2-thiazolyl]-1-piperidinyl]-2-[5-methyl-3-(trifluoromethyl)-1H-pyrazol-1-yl]ethanone] | – | – | – | – | – | – | pest or weed control at 40 ppm ([1]; * tested at 40 ppm): 100%; pest or weed control at 40 ppm [2]: 100%; pest or weed control at 40 ppm [3]: 99%
Cc1cc(C(F)(F)F)nn1CC(=O)N1CCC(c2nc(C3=NOC4(CCN(c5ccccc5)CC4)C3)cs2)CC1 [Compound 212] | – | – | – | 98 | 100 | 99 | –
Cc1cc(C(F)(F)F)nn1CC(=O)N1CCC(c2nc(C3=NOC(c4ccc(C(F)(F)F)cc4)C3)cs2)CC1 (stereo not drawn) [Compound 97] | – | – | – | 99 | 100 | 95 | –
Cc1cc(C(F)(F)F)nn1CC(=O)N1CCC(c2nc(-c3ccccc3Cl)cs2)CC1 [Compound 121] | 83 | 47 | 0 | – | – | – | –
Cc1cc(C(F)(F)F)nn1CC(=O)N1CCC(c2nc(C3=NN(C)C(c4ccccc4)C3)cs2)CC1 (stereo not drawn) [Compound 184] | – | – | – | 99 | 95 | 73 | –
COC(=O)C1CC(c2csc(C3CCN(C(=O)Cn4nc(C(F)(F)F)cc4C)CC3)n2)=NO1 (stereo not drawn) [Compound 55] | 17 | 26 | 0 | – | – | – | –
Cc1cc(C(F)(F)F)nn1CC(=O)N1CCC(c2nc(C3=NOC(c4cc(Cl)cc(Cl)c4)(C(F)(F)F)C3)cs2)CC1 (stereo not drawn) [Compound 39] | 8 | 67 | 0 | – | – | – | –
Cc1cc(C(F)(F)F)nn1CC(=O)N1CCC(c2nc(C3=NO[C@@](C#N)(c4ccccc4)C3)cs2)CC1 (racemic) [Compound 265, (5R)-4,5-dihydro-3-[2-[1-[2-[5-methyl-3-(trifluoromethyl)-1H-pyrazol-1-yl]acetyl]-4-piperidinyl]-4-thiazolyl]-5-phenyl-5-isoxazolecarbonitrile] | – | – | – | – | – | – | pest or weed control at 10 µg/mL [1]: 100%; pest or weed control at 10 µg/mL [2]: 100%; pest or weed control at 10 µg/mL [3]: 98%
Cc1cc(C(F)(F)F)nn1CC(=O)N1CCC(c2nc(-c3ccc(C(F)(F)F)cc3)cs2)CC1 [Compound 122] | 99 | 46 | 0 | – | – | – | –
Cc1cc(C(F)(F)F)nn1CC(=O)N1CCC(c2nc(C3=NOC(N4C(=O)N(C)C(C)(C)C4=O)C3)cs2)CC1 (stereo not drawn) [Compound 235] | – | – | – | 99 | 100 | 100 | –
Cc1cc(C(F)(F)F)nn1CC(=O)N1CCC(c2nc(C3=NOC4(CCCc5cc(C#N)ccc54)C3)cs2)CC1 (stereo not drawn) [Compound 251] | – | – | – | 99 | 100 | 99 | –
Cc1cccc(C)c1[C@H]1CC(c2csc(C3CCN(C(=O)Cn4nc(C(F)(F)F)cc4C)CC3)n2)=NO1 [Compound 178, 1-[4-[4-[(5R)-5-(2,6-dimethylphenyl)-4,5-dihydro-3-isoxazolyl]-2-thiazolyl]-1-piperidinyl]-2-[5-methyl-3-(trifluoromethyl)-1H-pyrazol-1-yl]ethanone] | – | – | – | – | – | – | pest or weed control at 40 ppm ([1]; * tested at 40 ppm): 100%; pest or weed control at 40 ppm [2]: 100%; pest or weed control at 40 ppm [3]: 99%
Cc1cc(C(F)(F)F)nn1CC(=O)N1CCC(c2nc(C3=NOC4(CCC(C#N)CC4)C3)cs2)CC1 (single isomer, unassigned) [Compound 256] | – | – | – | 100 | 100 | 99 | –
Cc1cc(C(F)(F)F)nn1CC(=O)N1CCC(c2nc(C3=NOC(c4cnccn4)C3)cs2)CC1 (stereo not drawn) [Compound 111] | – | – | – | 97 | 100 | 97 | –
Cc1cc(C(F)(F)F)nn1CC(=O)N1CCC(c2nc(C3=NOC(c4ccc(F)cc4)C3)cs2)CC1 (stereo not drawn) [Compound 96] | – | – | – | 100 | 100 | 99 | –
Cc1cc(C(F)(F)F)nn1CC(=O)N1CCC(c2nc(C3=NOC4(CCC(c5ccccc5)C4)C3)cs2)CC1 (single isomer, unassigned) [Compound 158] | 96 | 100 | 99 | – | – | – | –
Cc1cc(C(F)(F)F)nn1CC(=O)N1CCC(c2nc(C3=NOC(CC(C)(C)C)C3)cs2)CC1 (racemic) [Compound 28] | 99 | 100 | 94 | – | – | – | –
Cc1cc(C(F)(F)F)n(CC(=O)N2CCC(c3nc(C4=NOC(c5ccccc5)C4)cs3)CC2)n1 (stereo not drawn) [Compound 128, 1-[4-[4-(4,5-dihydro-5-phenyl-3-isoxazolyl)-2-thiazolyl]-1-piperidinyl]-2-[3-methyl-5-(trifluoromethyl)-1H-pyrazol-1-yl]ethanone] | – | – | – | – | – | – | pest or weed control at 40 ppm ([1]; * tested at 40 ppm): 100%; pest or weed control at 40 ppm [2]: 100%; pest or weed control at 40 ppm [3]: 99%
Cc1cc(C(F)(F)F)nn1CC(=O)N1CCC(c2nc(C3=CC(C)(c4ccccc4)OC3=O)cs2)CC1 (stereo not drawn) [Compound 145] | 17 | 58 | 0 | – | – | – | –
COC(=O)CC1CC(c2csc(C3CCN(C(=O)Cn4nc(C(F)(F)F)cc4C)CC3)n2)=NO1 (stereo not drawn) [Compound 116] | 46 | 100 | 79 | – | – | – | –
1-[4-[4-[5-(2-chlorophenyl)-4,5-dihydro-3-isoxazolyl]-2-thiazolyl]-1-piperidinyl]-2-[5-methyl-3-(trifluoromethyl)-1H-pyrazol-1-yl]ethanone [Compound 8] | 96 | 100 | 99 | – | – | – | –
Cc1cc(C(F)(F)F)nn1CC(=O)N1CCC(c2nc(-c3ccc(-c4ccccc4)cc3)cs2)CC1 [Compound 26] | 76 | 83 | 33 | – | – | – | –
Cc1cc(C(F)(F)F)nn1CC(=O)N1CCC(c2nc(C3=NOC(C[S+](C)[O-])(c4ccccc4)C3)cs2)CC1 (stereo not drawn) [Compound 144] | – | – | – | 99 | 100 | 93 | –
Cc1cc(C(F)(F)F)nn1CC(=O)N1CCC(c2nc(C3=NNC(c4ccccc4)C3)cs2)CC1 (stereo not drawn) [Compound 183] | – | – | – | 92 | 92 | 33 | –
Cc1cc(C(F)(F)F)nn1CC(=O)N1CCC(c2nc(-c3ccn(-c4ccccc4)n3)cs2)CC1 [Compound 76] | 72 | 92 | 67 | – | – | – | –
Cc1cc(C(F)(F)F)nn1CC(=O)N1CCC(c2nc(-c3cccc(Oc4ccccc4)c3)cs2)CC1 [Compound 75] | 72 | 24 | 0 | – | – | – | –
